Where two headings read alike, the source gives them in different places. Marks after values point to notes of the source that are not given here.
How the values were obtained:
[1] = test system: potato microtubers of cvs. Onaway and Goldrush; conditions: for Increase of ascorbic acid content in comparison to control: cv. Goldrush microtubers; for Ascorbic acid of microtubers / Caffeic acid of microtubers / Chlorogenic acid of microtubers: mean ± SE (n = 5)
Procedure: (§1) Based on a preliminary study, concentrations of 2 and 4 mM H2O2 and spray volume of ˜6 ml were selected for hormetic treatments. Phase II plantlets of cvs. Onaway and Goldrush (at 2- and 3-weeks) were treated with three concentrations (0, 2, 4 mM) of H2O2 with 5 replicates×4 containers per replicate (20 containers per treatment). Results were analyzed for variance (ANOVA) test using General Linear Model (GLM) of Statistical Analysis System (SAS) (SAS v 9.2, 2010) (SAS Institute Inc., Cary, N.C., USA). Means were compared using Duncan's Multiple Comparison test (P≦0.05).
(§2) At harvest, microtubers of cvs. Onaway and Goldrush were weighed, and averaged from 20 separate containers. For each replicate, microtubers were pooled for analysis, for a total of 5 samples per treatment/cultivar.

[2] = test system: potato microtubers of cvs. Onaway and Goldrush; assay: H2O2 hormesis: antioxidant capacity (DPPH) of in vitro-grown microtubers; conditions: for DPPH total antioxidant capacity of microtubers: mean ± SE (n = 5)
Procedure: Plantlets of cvs. Onaway and Goldrush were selected for their relatively high concentrations of antioxidants in field-grown tubers. […] Medium consisted of basal salt solution and organic fraction solidified with 7 g 1^-1 agar ([…]) adjusted to pH 5.7 before autoclaving at 121° C. for 20 min. […] (1994). […] Phase I promoted the vegetative growth of plantlets which was luxurious after 4 weeks. In Phase II, the residual medium was drained and replaced with 150 ml of liquid induction medium containing increased sucrose (80 gl^-1) and no growth regulators. […] Phase II plantlets of cvs. […] At harvest, microtubers of cvs. […] (2007).

[3] = test system: potato microtubers of cvs. Onaway and Goldrush; assay: H2O2 hormesis: microtuber mass / yield; conditions: for Microtuber mass: mean of 20 containers
Procedure: (1994). […] Cultures were placed into a growth chamber adjusted to 20±2° C. under 85 μmol m^-2s^-1 cool white florescent illumination with 16:8 h day:night cycle. Phase I promoted the vegetative growth of plantlets which was luxurious after 4 weeks. In Phase II, the residual medium was drained and replaced with 150 ml of liquid induction medium containing increased sucrose (80 gl^-1) and no growth regulators. Phase II incubation occurred at cooler temperature (15±2° C.), under reduced illumination (50 μmol m^-2s^-1), and reversed (8:16 h) day:night cycle. […] Phase II plantlets of cvs. […] At harvest, microtubers of cvs. […] (2007).

[4] = test system: potato microtubers of cvs. Onaway and Goldrush; assay: H2O2 hormesis: total phenolic content of microtubers (Folin-Ciocalteu); conditions: for Total phenolics (Folin-Ciocalteu) of microtubers: mean ± SE (n = 5)
Procedure: as §1, §2

[5] = HPLC quantification of ascorbic acid, chlorogenic acid, caffeic acid, ferulic acid and rutin in tubers, tuber tissues and extracts; conditions: for % reduction; from 1 to 7 months storage (HPLC content): tubers of 12 Canadian-grown cultivars, cold storage
Procedure: This assay was based on the method developed by Shakya and Navarre (J Agric Food Chem (2006) 54:5253-5260). Initially, samples (50 mg of freeze-dried powder) were extracted in 0.9 mL of extraction buffer (50% MeOH, 2.5% metaphosphoric acid, 1 mM EDTA) in a 2 mL screw cap tube. Samples were vortexed for 30 sec and centrifuged at 11,070×g for 15 min at 4° C. The supernatant was transferred to a 1.5 mL glass vial. The remaining pellet was re-extracted with 0.6 mL of extraction buffer and centrifuged. The supernatants were combined and concentrated in a Speed Vac (Thermo Savant SC 210A, Waltham, Mass.). The concentrated samples were solubilised with 500 mL of extraction buffer and filtered using 0.45 mm membrane filters (Durapore, PVDF) into 1 mL HPLC glass vials. Samples were kept chilled at all times and shielded from bright light. Samples were analyzed using a Varian HPLC system with a quaternary gradient pump, a single wavelength UV/VIS detector, and an autosampler with refrigerated sample compartment (Varian Canada Inc, Mississauga, ON). Samples were eluted using an Onyx reverse-phase HPLC column (100×4.5 mm) (Phenomenex, Netherlands), a solvent flow rate of 2 mL/min and a solvent gradient of 0-1 min 100% buffer A (10 mM formic acid, pH 3.5, with NH4OH), 1-5 min 0-30% buffer B (100% methanol with 5 mM ammonium formate), 5-6.5 min 40-0% buffer B, 6.5-8.5 min 70-100% buffer B. The phenolic acids in the samples were analyzed qualitatively and quantitatively using standards.
Ascorbic acid concentration was also determined as it is also an important antioxidant compound present in potato. HPLC determination is based on the retention time of a particular compound within a mixed sample in the column compared with purchased pure standards. Three different buffers (Buffer A, Buffer B, & Extraction buffer) were prepared. Buffer A was 10 mM formic acid (Fisher Scientific, ON, Canada) (0.46 g of formic acid in 1 L distilled water adjusted to pH 3.5 using 1M NH4OH solution). Buffer A was kept in a fridge (4° C.) until used. Buffer B was 5 mM ammonium formate (Sigma-Aldrich Chemicals, Germany) (0.32 g of ammonium formate in 1 L 100% methanol with agitation on a magnetic stirrer as ammonium formate is highly insoluble). Buffer B was also refrigerated. The extraction buffer was 50% methanol (Fisher Scientific, ON, Canada), 2.5% metaphosphoric acid (Aldrich Chemicals, WI, USA) and 1 mM ethylenediaminetetraacetic acid (EDTA; Sigma-Aldrich Chemicals, Germany) (50 ml of 100% methanol, 2.5 g of metaphosphoric acid, and 0.4 g of EDTA in 100 ml distilled water with stirring followed by filtering using a cup filter (Millipore Corporation, MS, USA). The extraction buffer was also refrigerated. […]

[6] = test system: IL-8 release in Caco-2 cell cultures; conditions: cited from earlier work
[7] = test system: carnitine palmitoyltransferase; conditions: cited from earlier work
[8] = test system: C57BL/6J mice with diet-induced obesity; assay: Body weight gain in high fat diet feeding study (10 wk); assay type: in vivo; conditions: for Body weight gain: mean ± SD (n = 3-5)
male mice = conditions: high fat diet, 1 g/kg diet; cited from earlier work
[9] = test system: C57BL/6J mice with diet-induced obesity; assay: Blood glucose concentration at the end of the HFD feeding period; conditions: mean ± SD (n = 3-5)
[10] = Females, HFD + 1X (1x CGA 8 mg/kg HFD; 1x FA 20 mg/kg HFD)
[11] = Females, HFD + 5X (1x CGA 8 mg/kg HFD; 1x FA 20 mg/kg HFD)
[12] = Females, HFD + 25X (1x CGA 8 mg/kg HFD; 1x FA 20 mg/kg HFD)
[13] = Males, HFD + 1X (1x CGA 8 mg/kg HFD; 1x FA 20 mg/kg HFD)
[14] = Males, HFD + 5X (1x CGA 8 mg/kg HFD; 1x FA 20 mg/kg HFD)
[15] = Males, HFD + 25X (1x CGA 8 mg/kg HFD; 1x FA 20 mg/kg HFD)

OO [H2O2, Hydrogen peroxide]
Increase of ascorbic acid content in comparison to control ([1]; 2 mM): 35%
Increase of ascorbic acid content in comparison to control ([1]; 4 mM): 34%
Effect on microtuber caffeic acid content ([1]; cv. Goldrush, 2 mM): significant depression
Increase of microtuber chlorogenic acid content ([1]; cv. Goldrush, 2 mM): 16.8%
Ascorbic acid of microtubers ([1]; cv. Goldrush, 2 mM H2O2 spray): 0.269 ± 0.03^a mg/g
Caffeic acid of microtubers ([1]; cv. Goldrush, 2 mM H2O2 spray): 0.008 ± 0.00^b mg/g
Chlorogenic acid of microtubers ([1]; cv. Goldrush, 2 mM H2O2 spray): 0.561 ± 0.02^a mg/g
Ascorbic acid of microtubers ([1]; cv. Goldrush, 4 mM H2O2 spray): 0.265 ± 0.00^a mg/g
Caffeic acid of microtubers ([1]; cv. Goldrush, 4 mM H2O2 spray): 0.011 ± 0.00^a mg/g
Chlorogenic acid of microtubers ([1]; cv. Goldrush, 4 mM H2O2 spray): 0.460 ± 0.02^b mg/g
Treatment effect on ascorbic acid content ([1]; cv. Onaway microtubers): not significant
Increase of microtuber chlorogenic acid content ([1]; cv. Onaway, 2 mM): 17.3%
Ascorbic acid of microtubers ([1]; cv. Onaway, 2 mM H2O2 spray): 0.170 ± 0.02^a mg/g
Caffeic acid of microtubers ([1]; cv. Onaway, 2 mM H2O2 spray): 0.002 ± 0.00^a mg/g
Chlorogenic acid of microtubers ([1]; cv. Onaway, 2 mM H2O2 spray): 0.304 ± 0.02^a mg/g
Ascorbic acid of microtubers ([1]; cv. Onaway, 4 mM H2O2 spray): 0.164 ± 0.02^a mg/g
Caffeic acid of microtubers ([1]; cv. Onaway, 4 mM H2O2 spray): 0.001 ± 0.00^b mg/g
Chlorogenic acid of microtubers ([1]; cv. Onaway, 4 mM H2O2 spray): 0.265 ± 0.04^ab mg/g
Increase of antioxidant capacity (DPPH) over control ([2]; cv. Goldrush microtubers, 2 mM H2O2 spray): 26%
Increase of antioxidant capacity (DPPH) over control ([2]; cv. Goldrush microtubers, 4 mM H2O2 spray): 20%
DPPH total antioxidant capacity of microtubers ([2]; cv. Goldrush, 2 mM H2O2 spray): 1.316 ± 0.02^a mg/g
DPPH total antioxidant capacity of microtubers ([2]; cv. Goldrush, 4 mM H2O2 spray): 1.214 ± 0.04^b mg/g
Increase of antioxidant capacity (DPPH) over control ([2]; cv. Onaway microtubers, 2 or 4 mM H2O2): 12-14%
DPPH total antioxidant capacity of microtubers ([2]; cv. Onaway, 2 mM H2O2 spray): 0.862 ± 0.02^a mg/g
DPPH total antioxidant capacity of microtubers ([2]; cv. Onaway, 4 mM H2O2 spray): 0.882 ± 0.04^a mg/g
Effect on microtuber yield ([3]; at the dosage applied (2, 4 mM)): did not affect yield
Microtuber mass ([3]; cv. Goldrush, 2 mM H2O2 spray): 10.25^a g
Microtuber mass ([3]; cv. Goldrush, 4 mM H2O2 spray): 10.26^a g
Microtuber mass ([3]; cv. Onaway, 2 mM H2O2 spray): 5.09^a g
Microtuber mass ([3]; cv. Onaway, 4 mM H2O2 spray): 5.07^a g
Total phenolics (Folin-Ciocalteu) of microtubers ([4]; cv. Goldrush, 2 mM H2O2 spray): 7.076 ± 0.01^a mg/g
Total phenolics (Folin-Ciocalteu) of microtubers ([4]; cv. Goldrush, 4 mM H2O2 spray): 6.354 ± 0.00^a mg/g
Total phenolics (Folin-Ciocalteu) of microtubers ([4]; cv. Onaway, 2 mM H2O2 spray): 4.376 ± 0.00^a mg/g
Total phenolics (Folin-Ciocalteu) of microtubers ([4]; cv. Onaway, 4 mM H2O2 spray): 3.789 ± 0.00^a mg/g
Effect on total polyphenolic levels (Folin-Ciocalteu) ([4]; either cultivar, 2 and 4 mM): not significantly affected

O=C1O[C@H]([C@@H](O)CO)C(O)=C1O [ascorbic acid]
% reduction of ascorbic acid with storage ([5]; tubers of 5 foreign cultivars, 1 to 7 months storage): 36.09%
% reduction; from 1 to 7 months storage (HPLC content) [5]: 80.48%

O=C(O)/C=C/c1ccc(O)c(O)c1 [caffeic acid]
Dose needed to suppress IL-8 secretion to levels seen in control cultures [6]: 2000 µM
% reduction; from 1 to 7 months storage (HPLC content) [5]: 92.16%

O=C(/C=C/c1ccc(O)c(O)c1)O[C@@H]1C[C@](O)(C(=O)O)C[C@@H](O)[C@H]1O [chlorogenic acid]
Dose needed to suppress IL-8 secretion to levels seen in control cultures [6]: 2000 µM
Carnitine palmitoyltransferase activity [7]: unaffected
Body weight gain [8, 10]: 9.7 ± 4.9^a g
Body weight gain [8, 11]: 7.6 ± 4.1^a g
Body weight gain [8, 12]: 9.8 ± 3.4^a g
Body weight gain [8, 13]: 22.4 ± 0.8^b g
Body weight gain [8, 14]: 18.2 ± 4.1^a,b,c g
Body weight gain [8, 15]: 8.8 ± 5.3^c g
Effect of pure compound on body weight ([8]; female mice, up to 200 mg/kg diet): no statistically significant effect
Effect of pure compound on body weight gain ([8]; male mice, 8-200 mg/kg diet): did not affect body weight gain
Effect on body weight gain (male mice): no effect on body weight gain

COc1cc(/C=C/C(=O)O)ccc1O [ferulic acid]
Fasting blood glucose [9, 10]: 3.8 ± 0.6^a mmol/L
Fasting blood glucose [9, 11]: 6.9 ± 1.1^a mmol/L
Fasting blood glucose [9, 12]: 4.7 ± 1.6^a mmol/L
Fasting blood glucose [9, 13]: 5.2 ± 0.6^b mmol/L
Fasting blood glucose [9, 14]: 6.1 ± 1.2^a mmol/L
Fasting blood glucose [9, 15]: 5.4 ± 0.2^b mmol/L
% reduction; from 1 to 7 months storage (HPLC content) [5]: 90.21%
Body weight gain [8, 10]: 9.7 ± 3.4^a g
Body weight gain [8, 11]: 6.3 ± 1.2^a g
Body weight gain [8, 12]: 8.8 ± 5.0^a g
Body weight gain [8, 13]: 12.4 ± 3.7^a,b,c g
Body weight gain [8, 14]: 10.8 ± 2.3^a,b,c g
Body weight gain [8, 15]: 11.0 ± 6.5^a,b,c g
Effect of pure compound on body weight gain ([8]; both sexes, up to 500 mg/kg diet): ineffective in suppressing body weight gain

O=C(/C=C/c1ccc(O)c(O)c1)O[C@@H]1C[C@@](O)(C(=O)O)C[C@@H](O)[C@@H]1O [neochlorogenic acid]
Carnitine palmitoyltransferase activity [7]: enhanced

Source: US9446063B2, “Methods for treating type-2 diabetes and obesity” (priority 2009, dated 2016)
